According to patent US5622955A, “Methods of treating cryptosporidium parvum” (The University of North Carolina at Chapel Hill, priority 1995, dated 1997):
Structures can show the parent of a compound that is named as a salt. Where two headings read alike, the source gives them in different places.

Key:
poly dA.dT = assay: DNA binding: increase in thermal melting of poly dA.dT
Description: ^a Increase in thermal melting of poly dA.dT. See, W. Wilson, et al.,

G. lamblia = assay: 50% inhibitory concentration against G. lamblia; type: cell-based
Description: ^d 50% Inhibitory concentration against G. lamblia, P. carinii
topoisomerase. See, Bell, et al., supra.

Pneumocystis carinii [1] = assay: In vivo Activity Against Pneumocystis carinii in Rats; conditions: saline = 100%
Pneumocystis carinii [2] = conditions: rat, in vivo
C. Parvum = assay: Inihibition of C. Parvum; type: in vivo
[3] = target: T1, topoisomerase II isolated from P. carinii (Pneumocystis carinii, UniProt A0A0W4ZKQ4); assay: Inhibition of topoisomerase II isolated from P. carinii; type: biochemical
T1 construct: homodimer
T1 sequence (A0A0W4ZKQ4 1-1493): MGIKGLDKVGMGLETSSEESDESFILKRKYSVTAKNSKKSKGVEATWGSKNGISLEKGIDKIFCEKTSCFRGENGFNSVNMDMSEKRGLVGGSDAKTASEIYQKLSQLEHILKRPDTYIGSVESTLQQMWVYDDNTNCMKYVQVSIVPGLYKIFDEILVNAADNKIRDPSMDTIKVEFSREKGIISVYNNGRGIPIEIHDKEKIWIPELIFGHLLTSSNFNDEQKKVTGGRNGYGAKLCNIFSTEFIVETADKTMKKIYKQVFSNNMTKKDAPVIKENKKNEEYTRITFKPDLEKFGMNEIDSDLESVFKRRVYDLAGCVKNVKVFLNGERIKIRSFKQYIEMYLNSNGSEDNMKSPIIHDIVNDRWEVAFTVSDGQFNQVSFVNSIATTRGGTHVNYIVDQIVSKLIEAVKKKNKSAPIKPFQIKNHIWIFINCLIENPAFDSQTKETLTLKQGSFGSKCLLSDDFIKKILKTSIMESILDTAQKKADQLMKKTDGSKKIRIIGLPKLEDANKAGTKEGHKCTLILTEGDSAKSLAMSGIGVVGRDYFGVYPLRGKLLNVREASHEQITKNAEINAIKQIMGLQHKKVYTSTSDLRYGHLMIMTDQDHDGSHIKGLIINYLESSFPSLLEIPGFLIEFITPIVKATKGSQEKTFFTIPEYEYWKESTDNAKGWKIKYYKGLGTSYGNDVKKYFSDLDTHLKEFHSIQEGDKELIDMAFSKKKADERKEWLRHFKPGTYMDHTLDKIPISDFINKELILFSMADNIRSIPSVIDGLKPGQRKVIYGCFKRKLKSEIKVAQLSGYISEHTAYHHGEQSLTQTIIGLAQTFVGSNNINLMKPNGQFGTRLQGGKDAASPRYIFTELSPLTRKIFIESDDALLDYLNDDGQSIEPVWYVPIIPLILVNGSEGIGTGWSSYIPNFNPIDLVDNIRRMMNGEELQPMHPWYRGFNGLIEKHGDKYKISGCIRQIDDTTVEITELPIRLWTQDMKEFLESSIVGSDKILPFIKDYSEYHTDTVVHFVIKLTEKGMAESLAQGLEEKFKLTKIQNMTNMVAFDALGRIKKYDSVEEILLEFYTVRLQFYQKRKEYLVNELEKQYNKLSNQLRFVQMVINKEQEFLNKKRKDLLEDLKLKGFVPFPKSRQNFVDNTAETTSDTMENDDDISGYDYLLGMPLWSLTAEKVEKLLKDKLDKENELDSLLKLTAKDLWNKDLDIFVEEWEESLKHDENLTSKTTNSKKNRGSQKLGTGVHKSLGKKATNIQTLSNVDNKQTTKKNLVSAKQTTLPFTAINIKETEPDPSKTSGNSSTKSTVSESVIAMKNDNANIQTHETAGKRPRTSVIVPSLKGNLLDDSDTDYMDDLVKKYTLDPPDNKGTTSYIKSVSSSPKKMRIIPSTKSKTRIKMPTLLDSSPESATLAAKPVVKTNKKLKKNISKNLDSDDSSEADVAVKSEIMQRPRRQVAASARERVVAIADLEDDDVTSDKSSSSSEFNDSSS
Description: ^c Inhibition of topoisomerase II isolated from P. carinii. See, C.
Dykstra, et al., J. Protozool. 38:78S (1991).

[4] = Giardia duodenalis; read-out: G. lamblia IC50

| SMILES | DNA binding (Increase in thermal melting of poly dA.dT) (poly dA.dT) | IC50 (G. lamblia; [4]) [nM] | cyst/g Lung (Pneumocystis carinii [1]; 2.5 mg/Kg per day) [%] | cyst/g Lung (Pneumocystis carinii [1]; 5.0 mg/Kg per day) [%] | Toxicity (Pneumocystis carinii [2]; 5 mg/kg/day) | further results |
| --- | --- | --- | --- | --- | --- | --- |
| N=C(N)c1ccc(OCCCCCOc2ccc(C(=N)N)cc2)cc1 [Pentamidine, reference compound] | 12.8 | – | – | – | – | IC50 (G. lamblia; Giardia duodenalis, read-out: G. lamblia IC50): 2600 nM |
| c1cc(-c2ccc(C3=NCCCN3)cc2)nc(-c2ccc(C3=NCCCN3)cc2)n1 [Compound 3, 2,4Bis[(4tetrahydropyrimmidinyl-2-yl)phenyl]pyrimidine hydrochloride] | 25 | 790 | 85.2 | – | – | – |
| c1ccc(-c2nccc(-c3ccc(C4=NCCN4)cc3)n2)cc1 [Compound 4, 2phenyl-4-[4(imidazolin-2-yl)phenyl]pyrimidine hydrochloride] | – | 2000 | – | 21.1 | – | – |
| Cl.N=C(N)c1ccc(-c2ccnc(-c3ccc(C(=N)N)cc3)n2)cc1 [Compound 1, 2,4-Bis-(4-guanylphenyl)pyrimidine hydrochloride] | 21.5 | 2000 | – | 2.4 | 0 | Toxicity (Pneumocystis carinii [2]; 10 mg/kg/day): 1+; % efficacy (C. Parvum; 0.1 mg/kg/day): 30%; % efficacy (C. Parvum; 5 mg/kg/day): 68%; % efficacy (C. Parvum; 25 mg/kg/day): 50%; cyst/g Lung (Pneumocystis carinii [1]; 10.0 mg/Kg per day): 0.8% |
| COc1cc(C(=N)NC(C)C)ccc1-c1ccnc(-c2ccc(C(=N)NC(C)C)cc2)n1 [Compound 5, 2-(4-[N-i-propylguanyl]phenyl)-4-(2-methoxy-4-[N-i-propylguanyl]phenyl)pyrimidine] | 13.9 | 36700 | 1.0 | – | – | Topoisomerase P. Carinii (Inhibition of topoisomerase II isolated from P. carinii) [3]: no |
| c1cc(-c2ccc(C3=NCCN3)cc2)nc(-c2ccc(C3=NCCN3)cc2)n1 [Compound 2, 2,4Bis[(4imidazolin-2-yl)phenyl]pyrimidine hydrochloride] | – | 3000 | – | 2.4 | 0 | – |
